We go through 88 molecules from a melting point compilation (Tetko et al.; mined from patent text by program, amines drawn as free bases though some values may be those of a salt).

Broadly, the melting point is the temperature, or range, at which the solid turns liquid. In the case of `Cn1ncc2c1-c1cc(Cl)ccc1N(C(=O)C1CC1)C2`, the melting point lay within 146 to 150 °C.

Molecule `CC(C)OC(=O)CCN=c1sc2ccccc2s1` registered a melting point of 60 to 61 °C. The value for `CC=Cc1c(N)nc(-c2ccc(C(F)(F)F)cc2)nc1C(=O)OC` was 123 to 125 °C; that for `CC(C)(C)COc1ccc([N+](=O)[O-])cc1` was 36 °C. `CN(N=Cc1c[nH]c2ccccc12)c1cc(N2CCOCC2)nc(OCCc2ccccn2)n1` yielded a melting point of 130 to 140 °C. In turn, `CS(=O)(=O)N1Cc2nc3c(N)nc4ccccc4c3n2CC(O)C1` (stereo not drawn) had a melting point of 282 to 283 °C. The same measure for `CCOC(=O)C1OC1C(=O)Nc1ccccc1` (stereo not drawn): 83 to 84 °C. The value for `CC(C)(C)c1csc(-c2cc3cc(OCc4ccccc4Cc4nnn[nH]4)ccc3o2)n1` was 80 to 84 °C; that for `CCCCCCCCCCCCCCCCCCOc1cc(O)cc(C(=O)OCc2ccccc2)c1` was 72 to 75 °C; that for `C[C@@H](n1ncn(-c2ccc(OC(F)(F)F)cc2)c1=O)[C@@]1(c2ccc(F)cc2F)CO1` was 103 to 106 °C. The same measure for `NC(=O)CC(C(N)=O)(c1ccc(F)cc1)c1ccc(F)cc1`: 192 to 193 °C. For `COc1ccc(C2=CCCCc3cc(OCc4ccccc4)ccc32)cc1`, the melting point fell in the range of 76 to 78 °C. The value for `Cc1cc(OC(F)F)c([N+](=O)[O-])cc1S(=O)(=O)N(C)C` was 125 to 126 °C. The same measure for `COc1ccc(NC(=O)/C=C/c2c(F)c(F)c(F)c(F)c2F)cc1[N+](=O)[O-]`: 265 to 266 °C. The value for `CCCCCCCCC1N=C(N)NC(Nc2cc(C(C)(C)C)ccc2OC)=N1` (stereo not drawn) was 129 to 132 °C; that for `CNc1c(C)cc(N)c([N+](=O)[O-])c1C` was 57 °C; that for `COCCn1cc2c(C3C(=O)Nc4ccc(Br)cc43)nc(NCC(C)O)nc2n1` (stereo not drawn) was > 300 °C.

In turn, `COCCn1cc(C(=O)N2CCC(c3cc(CNC(=O)C(F)(F)F)ccc3F)CC2)c2c(-c3ccncc3)cccc21` showed a melting point of 152 to 155 °C.

In turn, `O=C(O)c1cccc(C(=O)NC(Cc2c[nH]c3ccccc23)C(=O)CCc2cc(C(F)(F)F)cc(C(F)(F)F)c2)c1` (stereo not drawn) gave a melting point of 113 to 116 °C. Molecule `CCc1ccc(-c2c(Cl)c(CN3C(=O)CCC3=O)nc3sc4c(c23)CCNC4)cc1` displayed a melting point of 157 to 158 °C. Molecule `CCCCc1oc2ccccc2c1C(=O)NCc1ccc2c(-c3ccc(C(C)(C)C)cc3)c(O)ccc2c1` registered a melting point of 195 to 197 °C.

`Cc1ccc(CSCCC(=O)O)cc1` displayed a melting point of 75.8 °C.

In the case of `Nc1cccc(C(=O)CN2CCN(c3ccc(CO)c(Cl)c3)CC2)c1`, the melting point lay within 174 to 180 °C. On to `O=[N+]([O-])c1ccc2c(c1)C=Cc1ccc(Br)cc1S2`, for which the melting point fell in the range of 190 to 192 °C. The value for `CCN(c1ccc(Cl)cc1)c1cc(NC)nc(C)n1` was 133 to 136 °C; that for `N#CCc1ccccc1-c1ccc(C(=O)O)cc1` was 218 to 220 °C. The value for `Cc1cc(O)c(Oc2ccccc2C#N)cc1-c1ccsc1` was 155 to 159 °C; that for `CC(=O)OCc1c(C)n(Cc2ccccc2)c2c(OCc3ccc(F)cc3)nncc12` was 109 to 110 °C; that for `O=Cc1ccc(CC(=O)OCc2ccccc2)cc1` was 54 to 55 °C. The value for `CCCCOCCOc1ccc(-c2ccc3c(c2)C=C(C(=O)Nc2ccc(/C(Cc4nccn4CCC)=N/OC)cc2)CCN3CC(C)C)cc1` was 159 to 161 °C; that for `O=C(O)c1cc(-c2ccccc2S(=O)(=O)Cl)c2ccc3c(-c4ccccc4S(=O)(=O)Cl)cc(C(=O)O)nc3c2n1` was > 300 °C. Molecule `Nc1ccc(C(F)(F)F)cc1S(N)(=O)=O` yielded a melting point of 142 to 143 °C.

As for `CCCc1nc(N)nc(N)c1N1CCN(Cc2ccccc2)CC1`, the melting point lay within 157 to 160 °C. For `CCOC(=O)C1CC2C(=O)N=C(C(C)C)C=C2S1=N` (stereo not drawn), the melting point was in the range of 182 to 183 °C. The same measure for `CCCCc1nn(-c2cc([N+](=O)[O-])ccc2Br)c(=O)[nH]1`: 125 to 127 °C.

For `CCCCCOC(=O)n1c(N)nc(C#N)c1C#N`, the melting point is 166 to 169 °C. The same measure for `CCC(O)c1ccc(Cc2c(Cl)cc(N3N=CCNC3=O)cc2Cl)cc1` (stereo not drawn): 148 to 149 °C; for `CCCCCS(=O)(=O)NC(=O)CCc1ccc(OCCOC)cc1Oc1ncc(Cl)cc1Cl`: 92.2 to 93.6 °C; for `CC1(C)Oc2ccc(C(N)=O)cc2C(c2cccn(Cc3ccccc3)c2=O)C1O` (stereo not drawn): 230 to 235 °C.

For the molecule `CC(=O)NC[C@H]1CN(c2ccc(C(=O)c3cnc4c5ccccc5ccn34)cc2)C(=O)O1`, the melting point was in the range of 239 to 240 °C. The value for `O=Cc1ccc(S(=O)(=O)CCCl)cc1Cl` was 117 to 119 °C; that for `CS(=O)(=O)c1cc(CCC(=O)O)nc(-c2nc(=O)c3ccc(F)cc3s2)c1` was 236 °C. The same measure for `O=C(NO)[C@H](CNS(=O)(=O)c1ccc(OCc2ccc(Cl)c(Cl)c2)cc1)N1CCCCC1`: 166 °C; for `O=Cc1c(N2CCNCC2)n(Cc2ccccc2)c2ccccc12`: 163 to 165 °C; for `CCc1c(C)sc2[nH]c(=O)c(=O)[nH]c12`: > 300 °C.

On to `CN1C(=O)CC(c2ccc(O)cc2)C1C(O)c1ccc(-c2ccccc2)s1` (stereo not drawn), for which the melting point fell in the range of 248 to 249 °C. Take `Clc1ccc(-c2cc3ccccc3nc2Cl)c(Cl)c1`: the melting point lay within 120 to 122 °C.

`CCOC(=O)C1Cc2ccc(N(C)C)cc2NC1=O` (stereo not drawn) displayed a melting point of 181 to 182 °C. The same measure for `Nc1c(Cl)cc(C(O)CNCCCCCCOCCCCCCc2cncnc2)cc1Cl` (stereo not drawn): 59 to 60 °C. The same measure for `Cc1nnnn1-c1ccc(/C(=C\C2CCCC2)C(=O)O)cc1F`: 182 to 185 °C; for `Cc1cc(C)nc(OC(C(=O)O)C(O/C=C/Cc2ccccc2)(c2ccccc2)c2ccccc2)n1` (stereo not drawn): 128 to 133 °C. The same measure for `BrCC1(c2ccc3ccccc3c2)OCCO1`: 64 °C; for `CCOC(=O)CC(NC(=O)C1CCCCC1)C(=O)c1ccco1` (stereo not drawn): 58 to 61 °C.

Turning to `CCc1ccc(CCc2ccccc2NC=O)nc1`, the melting point is 62 to 63.5 °C. The same measure for `C=C1C(O)C(CO)OC1n1ccc(NC(=O)c2ccccc2)nc1=O` (stereo not drawn): > 300 °C.

In turn, `OC(CCCCCCCCCOCc1ccccc1)c1ccc(OCc2ccccc2)c(OCc2ccccc2)c1` (stereo not drawn) had a melting point of 45 to 47 °C.

`O=C(Nc1c(Br)cc(Br)cc1C(=O)NCC1CCCCC1)N[C@@H](Cc1ccc(NC(=O)c2c(Cl)cccc2Cl)cc1)C(=O)O` returned a melting point of 193 °C. As to `CCn1cc2c(n1)c(N)nc1cc(O)ccc12`, the melting point fell in the range of 214 to 215 °C. The value for `Nc1ccc(OCc2ccccc2)c(Cl)c1` was 54 °C; that for `COC(=O)c1cc(O)c(N=Nc2ccccc2)c(OC(C)=O)c1` was 162 °C; that for `C(=Nc1onc2c1CCC2)c1ccccc1` was 166 °C. The value for `COC(=O)C(CCSC)N(C(=O)OC(C)(C)C)C(=O)c1ccc(N)c(OC)c1` (stereo not drawn) was 163 to 165 °C.

As for `Cc1ccc(Cl)c2c(C)c(C(=O)O)[nH]c12`, the melting point fell in the range of 211 to 213 °C. `Cc1nc(O)cc(C(C)(C)C)n1`: the melting point fell in the range of 131 to 132 °C.

`CC(C)C(C)CCC(C)C1CCC2C3CCC4CC(OC(=O)c5ccccc5)CCC4(C)C3CCC12C` (stereo not drawn) showed a melting point of 232 to 234 °C. For the molecule `C[C@@H](C(N)=O)c1ccc(NS(=O)(=O)c2cccs2)cc1`, the melting point was 58 to 60 °C. The value for `COc1ccc(-n2nc(Sc3ccc(C(F)(F)F)cc3)c(C)c(C#N)c2=O)cc1` was 151 to 155 °C; that for `CC(=O)O[C@@H]1OCC[C@@H]1NC(=O)[C@H](CC(C)C)NS(=O)(=O)c1ccc(N)cc1` was 189 to 190 °C. The value for `NCC1Cc2cccc(Nc3cc(Cl)cc(Cl)c3)c2O1` (stereo not drawn) was > 250 °C. The value for `CCOC(=O)COc1cc(Cl)c(C(=O)c2ccc([N+](=O)[O-])cc2)c(Cl)c1` was 96 to 98 °C; that for `Cc1c(C)c2c(c(C)c1NC(=O)CC(C)(C)C)C(c1ccc(C=O)cc1)CO2` (stereo not drawn) was 195 to 196 °C; that for `CCOC(=O)CN(C)C(=O)c1ccn2c1CNc1ccccc1C2` was 147 to 148 °C. On to `CCOC(=O)c1c(C)n(C)c(-c2ccccc2)cc1=O`, for which the melting point amounted to 154 °C. The value for `CS(=O)(=O)c1ccc(-n2cncc2-c2ccc(F)cc2F)cc1` was 119 °C; that for `CC(C)c1ccccc1Sc1c(O)cc(-c2ccc(OCC(=O)O)cc2)oc1=O` was 217 °C; that for `CC1(C)CC(n2cncc2C(=O)OC2CCCCC2)c2ccccc2O1` (stereo not drawn) was 128 °C. `NCCNc1cc(NCCO)c([N+](=O)[O-])c(NCCO)c1` gave a melting point of 220 °C. The value for `O=C(CCCCCCCCCCC(=O)Oc1cc(O)cc(O)c1)Oc1cc(O)cc(O)c1` was 140 to 145 °C; that for `O=C(NC(Cc1ccc(OCC2CC2)cc1)C(=O)O)c1cn2cc(-c3ccc(Cl)cc3)ccc2n1` (stereo not drawn) was 276 °C.

Turning to `COCCOc1ccccc1S(=O)(=O)NC(=O)Nc1nc(Cl)cc(OC)n1`, the melting point is 166 to 168 °C. The molecule `CCCCNC(=O)N1CCC(c2nc(-c3ccc(-c4ccccc4)cc3)c[nH]2)CC1` registered a melting point of 99 to 100 °C.

The molecule `FC(F)(F)c1cccc(N2CCC(N=Cc3cccc4ccccc34)=N2)c1` registered a melting point of 173 °C.

As to `COc1ccc(N(C)c2nc(NC(=O)C(C)(C)C)nc3[nH]c4ccccc4c23)cc1`, the melting point is 288 to 289 °C. The same measure for `Cc1noc2ccc(Oc3ncccc3C(=O)NCc3ccc(C(C)(C)O)cc3)cc12`: 128 to 130 °C. The value for `CCOc1ccccc1-c1cc(OC)c(C(=O)N2Cc3cccn3Cc3ccccc32)cc1Cl` was 213 to 215 °C; that for `COc1ccc(C(=O)c2c(N)sc3c2CCN(Cc2ccccc2)C3)cc1` was 164 to 165 °C.

As for `ClCc1cnc2cc(Cl)ccc2c1Cl`, the melting point lay in the range of 106 to 107 °C. The same measure for `CC(C)(C)OC(=O)NCc1ccc(Nc2ncnc3[nH]cc(C(=O)c4ccccc4)c23)cc1`: 256 to 258 °C.
